This note sets out measurements from patent US6746835B2, “Thermally processed image recording material” (Fuji Photo Film Co., Ltd., priority 2001, dated 2004).

The data set can be described thus: pKa of the conjugate acid of the enolate anion (acid/base titration or UV absorption method). Type of data set: physicochemical. The following applies: mixed solvent of THF/water=3/2. The source says: The conjugate acid of the enolate anion in the formula (1) has a pKa value of 3.0-6.0. If the pKa value is less than 3.0, ultrahigh contrast images cannot be obtained. On the other hand, if it exceeds 6.0, stability before light exposure and development is degraded. The pKa value defined herein is a value obtained by the acid/base titration method or the UV absorption method in a mixed solvent of THF/water=3/2.
As for `O=C1/C(=C/O)N=C(c2cc(C(F)(F)F)cc(C(F)(F)F)c2)N1c1ccc(Cl)cc1` [Compound A-6], the pKa (as a rule, the pH at which an ionisable group is half protonated) stood at 3.8.

Consider `CCCCCCCCCCCCNc1ccc(N2C(=O)/C(=C\O)N=C2C(F)(F)F)cc1` [Compound A-18], for which the pKa turned out to be 3.1.

In the case of `CCCCCCCCCCCCc1cc(CCCCCCCCCCCC)cc(N2N=C/C(=C/O)C2=O)c1` [Compound R-1], the pKa was not above 2.9.

`CCCCCCCCCCCCCCCc1cccc(CCCN2C(=O)/C(=C\O)c3ccccc32)c1` [Compound R-2]: the pKa was determined as 6.3.
